In PMC11224403, “Des-acyl ghrelin reduces alcohol intake and alcohol-induced reward in rodents” (Translational Psychiatry, 2024):

Legend:
male and female rats [1] = assay: Intermittent-access alcohol drinking, acute DAG injection; format: in vivo, Rcc Han Wistar rats; settings: for intake of alcohol, water, total fluid, food, alcohol preference, body weight: male and female rats
Text: (§1) Male and female Rcc Han Wistar rats (8–12 weeks old at arrival; Envigo, Horst, Netherlands) were used for the alcohol drinking and locomotor activity experiments as they drink alcohol to intoxicating levels. For in vivo microdialysis studies male Wistar rats (Charles River, Calco, Italy) were used as they display robust dopamine levels in NAc shell after alcohol injection. […] All rodents were allowed to habituate to the animal facility at least one week before they entered an experiment. During housing (20 °C with 50% humidity) the rodents had free access to water and standard chow (Teklad Rodent Diet; Envigo, Madison, WI, USA). These experiments were approved by the Ethics Committee for Animal Experiments (ethical numbers: 1457/18, 3276/18, 1556/18, 3348/20; Gothenburg, Sweden) and followed the ARRIVE guidelines. The sample sizes of each experiment were based on previous experience in which statistical significance has been detected. The person who conducted the experiments, and analyzed the collected data was aware of the treatment allocation. Only preset exclusion criteria were used when analyzing the data obtained in attempts to exclude confounding factors in analyzing data. In the alcohol drinking experiments leaking bottles and low alcohol consumption (<3.0 g/kg for males; <3.5 g/kg for females) were preset exclusion criteria. The preset exclusion criterion in the ex vivo HPLC-EC, ELISA, and recombinant cell line experiments was contamination of the sample. Misplaced probes, technical difficulties, and damages to the surgery area were preset exclusion criteria for the in vivo microdialysis experiment. Intra-cage male aggression was the preset exclusion criterion for the locomotor activity and CPP experiments. To minimize tentative confounding factors, the order of treatments was stratified, with treatments being mixed for each animal cage and for each apparatus used as well as balancing the alcohol intake between future treatment groups. Although each experiment only was performed once, they were separated over different laboratory days with equal data obtained between sessions.
(§2) Alcohol (95%; Solveco AB, Stockholm, Sweden) was either diluted to a 20% solution using tap water (drinking experiment) or to a 15% (w/v) solution with 0.9% NaCl. Alcohol was in the behavioral and neurochemical tests injected (intraperitoneally, IP) 5 min before the test. A dose of 1.75 g/kg was used in male mice as it causes robust locomotor stimulation and induces a CPP [37–39], and 2 g/kg was used for rats as it elevates the dopamine levels in NAc shell. DAG (Tocrise Bioscience, Bristol, UK) was dissolved in 0.9% NaCl in doses (0.25–2 mg/kg) known to reduce food intake and DAG was injected IP).
(§3) Individually housed rats had intermittent access to an alcohol (20%) bottle and a water bottle, three 24-h sessions per week, and only water bottles the remaining days. A reversed light/dark cycle was used, and the bottles were changed when the lights went out. First, the rats consumed alcohol for 10 weeks (baseline drinking), where the bottles and food were weighed daily and the body weight weekly. During treatments, the bottles and food were weighed at 4- and/or 24-h and the body weight was measured daily. In the first drinking experiment, the potential of DAG to reduce alcohol consumption was tested and therefore, vehicle or DAG (1 mg/kg) was acutely injected into male (n = 12) or female (n = 12) rats. The second drinking experiment was conducted to establish the effects of lower DAG doses on alcohol intake. Therefore, separate male (n = 18) or female (n = 18) rats, were acutely injected with lower DAG doses (0.5 or 0.25 mg/kg) or vehicle. The third alcohol drinking experiment evaluated the ability of repeated DAG injections to lower alcohol drinking. Therefore, additional male (n = 24) and female (n = 24) rats were injected with either vehicle or DAG (1 mg/kg) at three alcohol-drinking sessions. […]

male and female rats [2] = assay: Intermittent-access alcohol drinking, repeated DAG injections; format: in vivo, Rcc Han Wistar rats; settings: for 4-h alcohol intake, overall / 24-h alcohol intake, overall: repeated DAG 1 mg/kg IP at three drinking sessions
Text: as §1, §2, §3

male and female rats [3] = assay: Locomotor activity test, DAG per se, rats; format: in vivo, Rcc Han Wistar rats; settings: DAG 0.5, 1.0 or 2.0 mg/kg, 60 min recording, n = 5–6 per group
Text: Male and female Rcc Han Wistar rats (8–12 weeks old at arrival; Envigo, Horst, Netherlands) were used for the alcohol drinking and locomotor activity experiments as they drink alcohol to intoxicating levels. For in vivo microdialysis studies male Wistar rats (Charles River, Calco, Italy) were used as they display robust dopamine levels in NAc shell after alcohol injection. […] All rodents were allowed to habituate to the animal facility at least one week before they entered an experiment. During housing (20 °C with 50% humidity) the rodents had free access to water and standard chow (Teklad Rodent Diet; Envigo, Madison, WI, USA). […] The sample sizes of each experiment were based on previous experience in which statistical significance has been detected. The person who conducted the experiments, and analyzed the collected data was aware of the treatment allocation. […]
Locomotor activity tests were conducted in ventilated and dim-lit (4 lux) open field arenas (420 × 420 × 200 mm; Med Associates Inc; Georgia, Vermont, USA). Infra-red beams detected distance traveled, number of jumps, vertical counts, average velocity, stereotypic counts, number of inner zone entries, and time spent in the inner/outer zones of each animal. […]
The obtained data are normally distributed and with equal variance. The data from drinking experiments were analyzed by unpaired t-test or repeated two-way ANOVA. […]

[4] = test system: human transporter of dopamine (DAT); assay: Transporter inhibition in recombinant cell line (neurotransmitter transporter uptake assay), DAT; format: cell-based; settings: 8.3 µM DAG; CHO-K1 cells, 3 h incubation, fluorescence dye
CB1 receptor = assay: Aquoscreen receptor activity assay, CB1; format: cell-based, human; settings: 50 µM DAG in results (8.3 µM in methods); luminescence, triplicates
[5] = female rats, acute DAG 1.0 mg/kg IP, n = 5 vs vehicle n = 6, 4 h
[6] = male rats, acute DAG 1.0 mg/kg IP, n = 5 vs vehicle n = 6, 4 h
[7] = male rats, acute DAG 1.0 mg/kg IP, n = 5 vs vehicle n = 6, 24 h
[8] = female rats, repeated DAG 1 mg/kg IP
[9] = female rats, n = 7 vs vehicle n = 9
[10] = female rats, repeated DAG 1 mg/kg IP, drinking session 2, n = 7 vs vehicle n = 9
[11] = female rats, repeated DAG 1 mg/kg IP, n = 7 vs vehicle n = 9
[12] = male rats, repeated DAG 1 mg/kg IP
[13] = male rats, n = 8 vs vehicle n = 8

des-acyl ghrelin (GSSFLSPEHQRVQQRKESKKPPAKLQPR; Ghrelin-28 non-acylated; UniProt Q9UBU3 24-51, looked up) [DAG, non-octanoylated form of ghrelin; purchased from Tocris (printed Tocrise Bioscience), dissolved in 0.9% NaCl]
4-h alcohol intake (male and female rats [1]; [5]): decreased the 4-h alcohol intake (t9 = 2.05; P = 0.0351)
preference for alcohol, 4-h (male and female rats [1]; [5]): reduced it at the I 4-h (t9 = 2.16; P = 0.0294)
4-h food intake (male and female rats [1]; female rats, acute DAG 1.0 mg/kg IP, n = 5 vs vehicle n = 6, 4 h (first statistic)): At neither time point, DAG affected the K, L food intake (t9 = 0.34; P = 0.7414
24-h alcohol intake (male and female rats [1]; female rats, acute DAG 1.0 mg/kg IP, n = 5 vs vehicle n = 6, 24 h): did not alter the 24-h drinking (t9 = 0.22; P = 0.8331)
24-h food intake (male and female rats [1]; female rats, acute DAG 1.0 mg/kg IP, n = 5 vs vehicle n = 6, 24 h (second statistic)): At neither time point, DAG affected the K, L food intake (t9 = 0.34; P = 0.7414 and t9 = 1.12; P = 0.2909, respectively)
intake of alcohol, water, total fluid, food, alcohol preference, body weight (male and female rats [1]; acute DAG 0.25 mg/kg IP, n = 6): did not alter the intake of alcohol, water, total fluid, food intake alcohol preference or body weight in male or female rats
intake of alcohol, water, total fluid, food, alcohol preference, body weight (male and female rats [1]; acute DAG 0.5 mg/kg IP, n = 6 (males n = 5)): did not alter the intake of alcohol, water, total fluid, food intake alcohol preference or body weight in male or female rats
4-h alcohol intake (male and female rats [1]; [6]): did not alter the A 4-h alcohol intake (t9 = 0.36; P = 0.7264)
4-h food intake (male and female rats [1]; [6]): did not affect the E 4-h food intake (t9 = 1.51; P = 0.1657)
preference for alcohol, 4-h (male and female rats [1]; [6]): did not alter the C preference for alcohol at the 4-h time point (t9 = 1.84; P = 0.0983)
24-h alcohol intake (male and female rats [1]; [7]): reduced the alcohol intake at the 24-h time point (t9 = 2.35; P = 0.0432)
24-h food intake (male and female rats [1]; [7]): increased the 24-h feeding (t9 = 2.64; P = 0.0271)
preference for alcohol, 24-h (male and female rats [1]; [7]): decreased it at 24 h (t9 = 3.00; P = 0.0149)
alcohol preference (male and female rats [2]; [8]): remained unaltered by repeated injections of DAG
body weight (male and female rats [2]; [8]): not affected by repeated DAG treatment
total fluid intake (male and female rats [2]; [8]): remained unaltered by repeated injections of DAG
water intake (male and female rats [2]; [8]): remained unaltered by repeated injections of DAG
4-h alcohol intake, overall (male and female rats [2]; [9]): overall reduced the alcohol consumption at the 4-h time point (treatment F1,14 = 9.17, P = 0.0090 **; time F2,28 = 12.63, P = 0.0001; interaction F2,28 = 1.02, P = 0.3754)
24-h alcohol intake, overall (male and female rats [2]; [9]): An overall decline in 24-h alcohol intake was observed (treatment F1,14 = 14.72, P = 0.0018 **; time F2,28 = 2.91, P = 0.0711; interaction F2,28 = 6.43, P = 0.0051 ##)
4-h alcohol intake, session 2 (male and female rats [2]; [10]): a decrease specifically evident at alcohol drinking session 2 (P = 0.0158)
4-h food intake, session 2 (male and female rats [2]; [10]): The lowered food intake by DAG was found at alcohol drinking session 2 (P = 0.0475)
4-h food intake, overall (male and female rats [2]; [11]): A lowered food intake by repeated DAG injections was observed at the 4-h (treatment F1,14 = 4.80, P = 0.0460 *; time F2,28 = 4.79, P < 0.0001; interaction F2,28 = 0.57, P = 0.5742)
24-h food intake (male and female rats [2]; [11]): not at the 24-h time point (treatment F1,14 = 0.53, P = 0.4798; time F2,28 = 1.68, P = 0.2049; interaction F2,28 = 0.19, P = 0.8269)
body weight (male and female rats [2]; [12]): unchanged after repeated DAG injections
preference for alcohol (male and female rats [2]; [12]): unchanged after repeated DAG injections
water intake (male and female rats [2]; [12]): unchanged after repeated DAG injections
4-h alcohol intake, overall (male and female rats [2]; [13]): overall decrease in alcohol intake at the A 4-h time point (treatment F1,14 = 5.12, P = 0.0401 *; time F2,28 = 1.87, P = 0.1754; interaction F2,28 = 0.59, P = 0.5622)
24-h alcohol intake, overall (male and female rats [2]; [13]): An overall reduction in alcohol intake was observed after DAG injections (treatment F1,14 = 1.96, P = 0.1836; time F2,28 = 3.44, P = 0.0460; interaction F2,28 = 4.34, P = 0.0228 #)
total fluid intake, 24-h (male and female rats [2]; male rats, repeated DAG 1 mg/kg IP, 24 h): overall decline in the total fluid intake at the 24-h time point (P = 0.0304)
24-h alcohol intake, session 2 (male and female rats [2]; male rats, repeated DAG 1 mg/kg IP, drinking session 2, n = 8 per group): specifically at alcohol drinking session 2 (P = 0.0324)
4-h alcohol intake, session 3 (male and female rats [2]; male rats, repeated DAG 1 mg/kg IP, drinking session 3, n = 8 per group): specifically lower after DAG at alcohol drinking session 3 (P = 0.0256)
4-h food intake (male and female rats [2]; male rats, repeated DAG 1 mg/kg IP, n = 8 per group (4-h statistics)): did not alter the food intake at any time point (4-h: treatment F1,14 = 1.41, P = 0.2546; time F2,28 = 6.86, P = 0.0045; interaction F2,28 = 0.05, P = 0.9518
24-h food intake (male and female rats [2]; male rats, repeated DAG 1 mg/kg IP, n = 8 per group (24-h statistics)): 24-h: treatment F1,14 = 0.55, P = 0.4727; time F2,28 = 13.79, P < 0.0001; interaction F2,28 = 1.03, P = 0.3707
locomotor activity, DAG per se (male and female rats [3]; female rats): did not influence locomotor activity
locomotor activity, DAG per se (male and female rats [3]; male rats): did not influence locomotor activity
inhibition of DAT [4]: no inhibition
activation of CB1 (CB1 receptor): no activation
